Common to all, as to assay type: functional, organism-based
Experiment [1] deals with Rattus norvegicus. Briefly: Analgesic activity in rat model of spared nerve injury-induced neuropathic pain assessed as increase in paw withdrawal threshold at 10 mg/kg, po administered via gavage once daily for 3 days by Von frey filament test.
Experiment [2] has as its system Rattus norvegicus. Briefly: Analgesic activity in rat model of chronic constriction injury-induced neuropathic pain assessed as increase in paw withdrawal threshold at 9.5 mg/kg, po administered via gavage once daily for 3 days by Von frey filament test.
Experiment [3] deals with Rattus norvegicus. Briefly: Analgesic activity in rat model of spared nerve injury-induced neuropathic pain assessed as increase in paw withdrawal threshold at 20 mg/kg, po administered via gavage once daily for 3 days by Von frey filament test.
Experiment [4] has as its system Rattus norvegicus. Briefly: Analgesic activity in rat model of chronic constriction injury-induced neuropathic pain assessed as increase in paw withdrawal threshold at 10 mg/kg, po administered via gavage once daily for 3 days by Von frey filament test.
Experiment [5] relates to Rattus norvegicus. Briefly: Analgesic activity in rat model of spared nerve injury-induced neuropathic pain assessed as increase in paw withdrawal threshold at 15 mg/kg, po administered via gavage once daily for 3 days by Von frey filament test.

Active and inactive are the calls of the source.

As to `Cc1c(C(=O)N2CCC2c2ccc(F)nc2)cnn1-c1nn2cccc2c(=O)[nH]1` (configuration not stated), the outcome with Rattus norvegicus [1] was Active. As to `Cc1c(C(=O)N2CCN(C3CC(F)(F)C3)CC2)nnn1-c1nn2cccc2c(=O)[nH]1`, the outcome in the experiment on Rattus norvegicus [2] was Active. On the same count and under the same terms, next, `Cc1c(C(=O)N2CCN(C3CC(F)(F)C3)CC2)cnn1-c1nn2cccc2c(=O)[nH]1`: “Active”. Take `Cc1c(C(=O)N2CCN(C3CCC3(F)F)CC2)nnn1-c1nn2cccc2c(=O)[nH]1` (configuration not stated): in the experiment with Rattus norvegicus [1], the result was Active.

Regarding `Cc1c(C(=O)N2CCC(c3nc(C#N)co3)CC2)cnn1-c1nn2cccc2c(=O)[nH]1`, in the experiment on Rattus norvegicus [3], the result was Active. In the case of `Cc1c(C(=O)N2CC(c3ccnc(F)c3)C2)cnn1-c1nn2cccc2c(=O)[nH]1`, the result in the experiment with Rattus norvegicus [4] was Active. For `Cc1c(C(=O)N2CC3CC(C2)N3C2CC2)cnn1-c1nn2cccc2c(=O)[nH]1`, the result in the experiment on Rattus norvegicus [5] was Active.

Source of the values: ChEMBL document CHEMBL4482318, “Sepiapterin reductase inhibitors” (2018).
